# In US9725449B2, “Tricyclic compounds as anticancer agents” (BRISTOL-MYERS SQUIBB COMPANY, priority 2015, dated 2017):
# pIC50: −log10 of the molar value.
# Biological target: BRD4 (Homo sapiens, UniProt O60885)
# Assay: Time resolved fluorescence resonance energy transfer (TR-FRET) binding assay, bromodomain BRD4
# Details: one of the FRET assays described; read-out: FRET BRD4 IC50
row,Compound,pIC50
1,"[2H]C([2H])([2H])c1nnn(C)c1-c1cnc2c3c(OC(C)C)ncc(S(C)(=O)=O)c3n([C@H](c3ccccc3)C3CCOCC3)c2c1 [Example 58, 10-Methanesulfonyl-5-[4-(^2H3)methyl-1-methyl-1H-1,2,3-triazol-5-yl]-8-[(S)-oxan-4-yl(phenyl)methyl]-13-(propan-2-yloxy)-3,8,12-triazatricyclo[7.4.0.0^2,^7]trideca-1(13),2(7),3,5,9,11-hexaene]",> 9.00
2,"[2H]C([2H])([2H])c1nnn(C)c1-c1cnc2c3ccc(C(C)(O)C4CC4)nc3n([C@H](c3ccccc3F)C3CCOCC3)c2c1 (stereo partly drawn) [Example 243, 1-Cyclopropyl-1-{8-[(S)-(2-fluorophenyl)(oxan-4-yl)methyl]-5-[4-(^2H3)methyl-1-methyl-1H-1,2,3-triazol-5-yl]-3,8,10-triazatricyclo[7.4.0.0^2,^7]trideca-1(13),2(7),3,5,9,11-hexaen-11-yl}ethan-1-ol]",> 8.00
3,"Cc1nnn(C)c1-c1cnc2c3cnc(C(C)(C)O)cc3n([C@H](c3ccccc3)C3CCOCC3)c2c1 [Example 285, 2-[5-(Dimethyl-1H-1,2,3-triazol-5-yl)-8-[(S)-oxan-4-yl(phenyl)methyl]-3,8,12-triazatricyclo[7.4.0.0^2,^7]trideca-1(9),2(7),3,5,10,12-hexaen-11-yl]propan-2-ol]",> 9.00
4,"COc1nccc2c3ncc(-c4c(C)nnn4C)cc3n(C(c3cccc(F)c3F)C3CCOCC3)c12 (single isomer, unassigned) [Example 22, 8-[(2,3-Difluorophenyl)(oxan-4-yl)methyl]-5-(dimethyl-1H-1,2,3-triazol-5-yl)-10-methoxy-3,8,11-triazatricyclo[7.4.0.0^2,^7]trideca-1(13),2(7),3,5,9,11-hexaene]",> 8.00
5,"Cc1nnn(C)c1-c1cnc2c3ccc(Cl)nc3n([C@H](c3ccccc3)C3CCOCC3)c2c1 [Example 14, 11-Chloro-5-(dimethyl-1H-1,2,3-triazol-5-yl)-8-[(S)-oxan-4-yl(phenyl)methyl]-3,8,10-triazatricyclo[7.4.0.0^2,^7]trideca-1(9),2(7),3,5,10,12-hexaene]",> 8.00
6,"COc1ccc2c3ncc(-c4c(C)nnn4C)cc3n(C(c3cccc(F)c3)C3CCOCC3)c2n1 (racemic) [Example 16, 5-(Dimethyl-1H-1,2,3-triazol-5-yl)-8-[(3-fluorophenyl)(oxan-4-yl)methyl]-11-methoxy-3,8,10-triazatricyclo[7.4.0.0^2,^7]trideca-1(13),2(7),3,5,9,11-hexaene]",> 8.00
7,"[2H]C([2H])([2H])C(C)(O)c1ccc2c3ncc(-c4c(C)nnn4C)cc3n([C@H](c3ccccc3)C3CCOCC3)c2n1 (stereo partly drawn) [Example 177, 2-[5-(Dimethyl-1H-1,2,3-triazol-5-yl)-8-[(S)-oxan-4-yl(phenyl)methyl]-3,8,10-triazatricyclo[7.4.0.0^2,^7]trideca-1(9),2(7),3,5,10,12-hexaen-11-yl](1,1,1-^2H3)propan-2-ol]",> 9.00
8,"Cc1cccnc1C(C1CCOCC1)n1c2cc(-c3c(C)nnn3C)ncc2c2ncc(C(C)(C)O)cc21 (single isomer, unassigned) [Example 374]",> 8.00
9,"Cc1nnn(C)c1-c1cnc2c3ccc(N4CCS(=O)(=O)C(C)C4)nc3n(C(c3ccccc3)C3CCOCC3)c2c1 [Example 217, 4-[5-(Dimethyl-1H-1,2,3-triazol-5-yl)-8-[(S)-oxan-4-yl(phenyl)methyl]-3,8,10-triazatricyclo[7.4.0.0^2,^7]trideca-1(9),2(7),3,5,10,12-hexaen-11-yl]-2-methyl-1λ^6,4-thiomorpholine-1,1-dione]",> 8.00
10,"2-{8-[(3-Fluoropyridin-2-yl)(oxan-4-yl)methyl]-11-[4-(^2H3)methyl-1-methyl-1H-1,2,3-triazol-5-yl]-3,8,10-triazatricyclo[7.4.0.0^2,^7]trideca-1(9),2,4,6,10,12-hexaen-5-yl}propan-2-ol [Example 362]",> 8.00
11,"COc1ncc(S(C)(=O)=O)c2c1c1ncc(-c3c(C)noc3C)cc1n2C(c1ccccc1)C1CCC(F)(F)CC1 (single isomer, unassigned) [Example 88, 8-[(4,4-Difluorocyclohexyl)(phenyl)methyl]-5-(dimethyl-1,2-oxazol-4-yl)-10-methanesulfonyl-13-methoxy-3,8,12-triazatricyclo[7.4.0.0^2,^7]trideca-1(13),2(7),3,5,9,11-hexaene]",> 8.00
12,"Cc1nnn(C)c1-c1cnc2c3ccc(N4CC(O)C4)nc3n([C@H](c3ccccc3)C3CCOCC3)c2c1 [Example 179, 1-[5-(Dimethyl-1H-1,2,3-triazol-5-yl)-8-[(S)-oxan-4-yl(phenyl)methyl]-3,8,10-triazatricyclo[7.4.0.0^2,^7]trideca-1(9),2(7),3,5,10,12-hexaen-11-yl]azetidin-3-ol]",> 9.00
13,[2H]C([2H])([2H])c1nnn(C)c1-c1cnc2c3cnc(Cl)cc3n([C@H](c3ccccc3F)C3CCOCC3)c2c1 [Example 315],> 8.00
14,"Cc1nnn(C)c1-c1cnc2c3ccc(C4=CCN(C)CC4)nc3n([C@H](c3ccccc3F)C3CCOCC3)c2c1 [Example 230, 5-(Dimethyl-1H-1,2,3-triazol-5-yl)-8-[(S)-(2-fluorophenyl)(oxan-4-yl)methyl]-11-(1-methyl-1,2,3,6-tetrahydropyridin-4-yl)-3,8,10-triazatricyclo[7.4.0.0^2,^7]trideca-1(13),2(7),3,5,9,11-hexaene]",> 8.00
15,"Cc1noc(C)c1-c1cnc2c3c(NS(=O)(=O)C4CC4)ncc(S(C)(=O)=O)c3n([C@H](c3ccccc3)C3CCOCC3)c2c1 [Example 98, N-[5-(Dimethyl-1,2-oxazol-4-yl)-10-methanesulfonyl-8-[(S)-oxan-4-yl(phenyl)methyl]-3,8,12-triazatricyclo[7.4.0.0^2,^7]trideca-1(13),2(7),3,5,9,11-hexaen-13-yl]cyclopropanesulfonamide]",> 8.00
16,CCCC(c1ccccc1)n1c2cc(-c3c(C)nnn3C)ncc2c2ncc(C(C)(C)O)cc21 (centres unmarked) [Example 372],> 5.82
17,"[2H]C([2H])([2H])c1nnn(C)c1-c1cnc2c3c(OC)ncc(S(C)(=O)=O)c3n([C@H](c3ccccc3)C3CCC(F)(F)CC3)c2c1 [Example 81, 8-[(S)-(4,4-Difluorocyclohexyl)(phenyl)methyl]-10-methanesulfonyl-13-methoxy-5-[4-(^2H3)methyl-1-methyl-1H-1,2,3-triazol-5-yl]-3,8,12-triazatricyclo[7.4.0.0^2,^7]trideca-1(13),2(7),3,5,9,11-hexaene]",> 9.00
18,"CC(=O)c1ccc(-c2ccc3c4ncc(-c5c(C)nnn5C)cc4n([C@H](c4ccccc4)C4CCOCC4)c3n2)s1 [Example 162, 1-{5-[5-(Dimethyl-1H-1,2,3-triazol-5-yl)-8-[(S)-oxan-4-yl(phenyl)methyl]-3,8,10-triazatricyclo[7.4.0.0^2,^7]trideca-1(9),2(7),3,5,10,12-hexaen-11-yl]thiophen-2-yl}ethan-1-one]",> 8.00
19,"Cc1nnn(C)c1-c1cnc2c3ccc(S(C)(=O)=O)nc3n([C@H](c3ccccc3)C3CCOCC3)c2c1 [Example 145, 5-(Dimethyl-1H-1,2,3-triazol-5-yl)-11-methanesulfonyl-8-[(S)-oxan-4-yl(phenyl)methyl]-3,8,10-triazatricyclo[7.4.0.0^2,^7]trideca-1(13),2(7),3,5,9,11-hexaene]",> 8.00
20,"COc1nccc2c3ncc(-c4c(C)nnn4C)cc3n(C(c3cc(F)ccc3F)C3CCOCC3)c12 (racemic) [Example 26, 8-[(2,5-Difluorophenyl)(oxan-4-yl)methyl]-5-(dimethyl-1H-1,2,3-triazol-5-yl)-10-methoxy-3,8,11-triazatricyclo[7.4.0.0^2,^7]trideca-1(13),2(7),3,5,9,11-hexaene]",> 8.00
21,"Cc1cnn(C)c1-c1cnc2c3ccc(S(C)(=O)=O)nc3n([C@H](c3ccccc3)C3CCOCC3)c2c1 [Example 146, 5-(1,4-Dimethyl-1H-pyrazol-5-yl)-11-methanesulfonyl-8-[(S)-oxan-4-yl(phenyl)methyl]-3,8,10-triazatricyclo[7.4.0.0^2,^7]trideca-1(13),2(7),3,5,9,11-hexaene]",> 5.82
22,"[2H]C([2H])([2H])c1nnn(C)c1-c1cnc2c3c(OCC4CC4)ncc(S(C)(=O)=O)c3n([C@H](c3ccccc3F)C3CCOCC3)c2c1 [Example 76, 13-(Cyclopropylmethoxy)-8-[(S)-(2-fluorophenyl)(oxan-4-yl)methyl]-10-methanesulfonyl-5-[4-(^2H3)methyl-1-methyl-1H-1,2,3-triazol-5-yl]-3,8,12-triazatricyclo[7.4.0.0^2,^7]trideca-1(13),2(7),3,5,9,11-hexaene]",> 9.00
23,"[2H]C([2H])([2H])c1nnn(C)c1-c1cnc2c3c(OCC)nccc3n([C@H](c3ccccc3)C3CCOCC3)c2c1 [Example 129, 13-Ethoxy-5-[4-(^2H3)methyl-1-methyl-1H-1,2,3-triazol-5-yl]-8-[(S)-oxan-4-yl(phenyl)methyl]-3,8,12-triazatricyclo[7.4.0.0^2,^7]trideca-1(13),2(7),3,5,9,11-hexaene]",> 9.00
24,"[2H]C([2H])([2H])c1nnn(C)c1-c1cnc2c3ccc(-c4c(C([2H])([2H])[2H])nnn4C)nc3n(C(c3ccccc3)C3CCC(F)(F)CC3)c2c1 (centres unmarked) [Example 261, 8-[(4,4-Difluorocyclohexyl)(phenyl)methyl]-5,11-bis[4-(^2H3)methyl-1-methyl-H-1,2,3-triazol-5-yl]-3,8,10-triazatricyclo[7.4.0.0^2,^7]trideca-1(13),2(7),3,5,9,11-hexaene]",> 8.00
25,"[2H]C([2H])([2H])c1nnn(C)c1-c1cnc2c3cnc(C(C)(C)O)cc3n([C@H](c3ccc(F)cc3)C3CCOCC3)c2c1 [Example 159, 2-{8-[(S)-(4-Fluorophenyl)(oxan-4-yl)methyl]-5-[4-(^2H3)methyl-1-methyl-1H-1,2,3-triazol-5-yl]-3,8,12-triazatricyclo[7.4.0.0^2,^7]trideca-1(13),2(7),3,5,9,11-hexaen-11-yl}propan-2-ol]",> 5.82
26,"[2H]C([2H])([2H])c1nnn(C)c1-c1cnc2c3c(OC)nccc3n([C@H](c3ccccc3)C3CCOCC3)c2c1 [Example 128, 13-Methoxy-5-[4-(^2H3)methyl-1-methyl-1H-1,2,3-triazol-5-yl]-8-[(S)-oxan-4-yl(phenyl)methyl]-3,8,12-triazatricyclo[7.4.0.0^2,^7]trideca-1(13),2(7),3,5,9,11-hexaene]",> 8.00
